# Experimental data as given in publication PMC9206137, “Synergistic anti-SARS-CoV-2 activity of repurposed anti-parasitic drug combinations” (BMC Pharmacology & Toxicology, 2022).
# Several values for one entry are separate records, joined by “and”; a condition that tells them apart may be missing. Identical values can stand only once.
# Assays:
# [1] = test system: SARS-CoV-2; assay: microbe, parasite or virus in culture; assay type: cell-based; conditions: for % inhibition: Calu-3 cells
# [2] = test system: SARS-CoV-2; assay: Antiviral activity against SARS-CoV-2 in Vero E6 cells, plaque assay; assay type: cell-based
# [3] = Cell viability assay (MTT) in Calu-3 cells; conditions: human, Calu-3 cells
# Description: (§1) Subsequently, the cell viability was assessed using MTT dyes (Invitrogen) in duplicate (Supplementary file 1). The procedure was described elsewhere. The viability of drug-treated cells was expressed as percent cell viability relative to 0.5% DMSO-treated cells.
# [4] = test system: Calu-3 cells; assay: Cell viability assay (MTT) in Calu-3 cells; conditions: replicates; for %cell viability: Calu-3; for cell viability: Calu-3 cells
# Description: as §1
# [5] = test system: SARS-CoV-2; assay: Antiviral activity against SARS-CoV-2 in Vero E6 cells, one-step qRT-PCR (single drugs, two-drug combinations, synergy analysis); conditions: for %inhibition (qRT-PCR) / % inhibition: replicates; for % inhibition: Vero E6 cells
# [6] = test system: Vero E6 cells; assay: Cell viability assay (MTT) in Vero E6 cells; conditions: replicates; for %cell viability: Vero E6; for cell viability: Vero E6 cells
# Description: as §1
# [7] = Cell viability assay (MTT) in Vero E6 cells; conditions: African green monkey, Vero E6 cells
# Description: as §1
smiles,measurement,setting,value
"O=C(Nc1ccc([N+](=O)[O-])cc1Cl)c1cc(Cl)ccc1O [Niclosamide, niclosamide]",SI,[1]; Calu-3,28.1
same,%inhibition (plaque assay),"[1]; Calu-3, niclosamide 0.039063 uM, replicates",23.81% (2×) and 35.24%
same,%inhibition (plaque assay),"[1]; Calu-3, niclosamide 0.078125 uM, replicates",35.24% and 39.05%
same,%inhibition (plaque assay),"[1]; Calu-3, niclosamide 0.15625 uM, replicates",35.24% and 42.86% and 20.00%
same,%inhibition (plaque assay),"[1]; Calu-3, niclosamide 0.3125 uM, replicates",69.52% and 61.90%
same,%inhibition (plaque assay),"[1]; Calu-3, niclosamide 0.625 uM, replicates",61.90%
same,%inhibition (plaque assay),"[1]; Calu-3, niclosamide 1.25 uM, replicates",69.52% and 80.95%
same,% inhibition,"[1]; Niclosamide 0.05 uM alone, replicates",33.33% and 13.33% (2×)
same,% inhibition,"[1]; Niclosamide 0.10 uM alone, replicates",40.00%
same,% inhibition,"[1]; Niclosamide 0.40 uM alone, replicates",70.00%
same,inhibition at 0.039063 µM,"[1]; Severe acute respiratory syndrome coronavirus 2, Calu-3, Calu-3, niclosamide 0.039063 uM, replicates, read-out: %inhibition (plaque assay)",31.4%
same,inhibition at 0.078125 µM,"[1]; Severe acute respiratory syndrome coronavirus 2, Calu-3, Calu-3, niclosamide 0.078125 uM, replicates, read-out: %inhibition (plaque assay)",31.4%
same,inhibition at 0.1 µM,"[1]; Severe acute respiratory syndrome coronavirus 2, Calu-3, Calu-3, niclosamide 0.1 uM alone",46.7 ± 6.67%
same,inhibition at 0.2 µM,"[1]; Severe acute respiratory syndrome coronavirus 2, Calu-3, Calu-3, niclosamide 0.2 uM alone",53.3 ± 6.67%
same,inhibition at 0.3125 µM,"[1]; Severe acute respiratory syndrome coronavirus 2, Calu-3, Calu-3, niclosamide 0.3125 uM, replicates, read-out: %inhibition (plaque assay)",73.3%
same,inhibition at 0.4 µM,"[1]; Severe acute respiratory syndrome coronavirus 2, Calu-3, Calu-3, niclosamide 0.4 uM alone",61.1 ± 8.39%
same,inhibition at 0.625 µM,"[1]; Severe acute respiratory syndrome coronavirus 2, Calu-3, Calu-3, niclosamide 0.625 uM, replicates, read-out: %inhibition (plaque assay)",65.7%
same,inhibition at 1.25 µM,"[1]; Severe acute respiratory syndrome coronavirus 2, Calu-3, Calu-3, niclosamide 1.25 uM, replicates, read-out: %inhibition (plaque assay)",73.3%
same,inhibition at 0.1 µM,"[1]; Severe acute respiratory syndrome coronavirus 2, Calu-3, Calu-3 cells, Niclosamide 0.10 uM alone, replicates",53.3%
same,inhibition at 0.2 µM,"[1]; Severe acute respiratory syndrome coronavirus 2, Calu-3, Calu-3 cells, Niclosamide 0.20 uM alone, replicates",53.3%
same,inhibition at 0.4 µM,"[1]; Severe acute respiratory syndrome coronavirus 2, Calu-3, Calu-3 cells, Niclosamide 0.40 uM alone, replicates",60%
same,IC50,"[1]; Severe acute respiratory syndrome coronavirus 2, Calu-3, 500 TCID50, plaque assay, single drug",200 nM
same,inhibition at 0.00390625 µM,"[2]; Severe acute respiratory syndrome coronavirus 2, Vero C1008, Vero E6, niclosamide 0.00390625 uM, replicates",11.5%
same,inhibition at 0.015625 µM,"[2]; Severe acute respiratory syndrome coronavirus 2, Vero C1008, Vero E6, niclosamide 0.015625 uM, replicates",23.2%
same,inhibition at 0.03125 µM,"[2]; Severe acute respiratory syndrome coronavirus 2, Vero C1008, Vero E6, niclosamide 0.03125 uM, replicates",23.7%
same,inhibition at 0.0625 µM,"[2]; Severe acute respiratory syndrome coronavirus 2, Vero C1008, Vero E6, niclosamide 0.0625 uM, replicates",40.1%
same,inhibition at 0.125 µM,"[2]; Severe acute respiratory syndrome coronavirus 2, Vero C1008, Vero E6, niclosamide 0.125 uM, replicates",84.6%
same,IC50,"[2]; Severe acute respiratory syndrome coronavirus 2, Vero C1008, Vero E6, MOI 0.01, 48 hours, single drug",0.049 µM
same,%inhibition (plaque assay),"[2]; Vero E6, niclosamide 0.00390625 uM, replicates",9.45% and 9.72%
same,%inhibition (plaque assay),"[2]; Vero E6, niclosamide 0.0078125 uM, replicates",5.39% and 21.29% and 14.01%
same,%inhibition (plaque assay),"[2]; Vero E6, niclosamide 0.015625 uM, replicates",25.26% and 23.12%
same,%inhibition (plaque assay),"[2]; Vero E6, niclosamide 0.03125 uM, replicates",28.44% and 31.03%
same,%inhibition (plaque assay),"[2]; Vero E6, niclosamide 0.0625 uM, replicates",40.15% and 40.02%
same,%inhibition (plaque assay),"[2]; Vero E6, niclosamide 0.125 uM, replicates",97.12% and 94.56%
same,CC50 at 48 h,[3],5620 nM
same,"viability at 48 h, 0.019531 uM","[3]; %cell viability, Calu-3, niclosamide 0.019531 uM, replicates",92.2%
same,"viability at 48 h, 0.039063 uM","[3]; %cell viability, Calu-3, niclosamide 0.039063 uM, replicates",102%
same,"viability at 48 h, 0.078125 uM","[3]; %cell viability, Calu-3, niclosamide 0.078125 uM, replicates",109%
same,"viability at 48 h, 0.15625 uM","[3]; %cell viability, Calu-3, niclosamide 0.15625 uM, replicates",100%
same,"viability at 48 h, 0.3125 uM","[3]; %cell viability, Calu-3, niclosamide 0.3125 uM, replicates",100%
same,"viability at 48 h, 0.625 uM","[3]; %cell viability, Calu-3, niclosamide 0.625 uM, replicates",107%
same,"viability at 48 h, 1.25 uM","[3]; %cell viability, Calu-3, niclosamide 1.25 uM, replicates",96.5%
same,"viability at 48 h, 2.5 uM","[3]; %cell viability, Calu-3, niclosamide 2.5 uM, replicates",85%
same,"viability at 48 h, 5 uM","[3]; %cell viability, Calu-3, niclosamide 5 uM, replicates",59.4%
same,%cell viability,[4]; niclosamide 0.019531 uM,102.92%
same,%cell viability,[4]; niclosamide 0.039063 uM,104.17%
same,%cell viability,[4]; niclosamide 0.078125 uM,109.86%
same,%cell viability,[4]; niclosamide 0.15625 uM,107.64%
same,%cell viability,[4]; niclosamide 0.3125 uM,99.17%
same,%cell viability,[4]; niclosamide 0.625 uM,104.86%
same,%cell viability,[4]; niclosamide 1.25 uM,97.36%
same,%cell viability,[4]; niclosamide 2.5 uM,82.64%
same,%cell viability,[4]; niclosamide 5 uM,54.44%
same,cell viability,[4]; Niclosamide 0.05 uM alone,96.54 and 92.66
same,cell viability,[4]; Niclosamide 0.10 uM alone,89.85 and 85.75
same,cell viability,[4]; Niclosamide 0.20 uM alone,98.27 and 86.39
same,cell viability,[4]; Niclosamide 0.40 uM alone,103.02 and 98.49
same,%inhibition (qRT-PCR),"[5]; Vero E6, niclosamide 0.00390625 uM",21.23% and 16.04% and 7.08%
same,%inhibition (qRT-PCR),"[5]; Vero E6, niclosamide 0.0078125 uM",27.36% and 22.17% and 24.53%
same,%inhibition (qRT-PCR),"[5]; Vero E6, niclosamide 0.015625 uM",29.25% and 17.92% and 28.30%
same,%inhibition (qRT-PCR),"[5]; Vero E6, niclosamide 0.03125 uM",29.72% and 33.96% and 20.28%
same,%inhibition (qRT-PCR),"[5]; Vero E6, niclosamide 0.0625 uM",52.36% and 36.32% and 72.26%
same,%inhibition (qRT-PCR),"[5]; Vero E6, niclosamide 0.125 uM",95.05% and 87.83% and 93.92%
same,% inhibition,[5]; Niclosamide 0.01125 uM alone,6.05% and 30.26% and 19.89% and 3.41%
same,% inhibition,[5]; Niclosamide 0.0225 uM alone,31.70% and 37.15% and 50.00%
same,% inhibition,[5]; Niclosamide 0.045 uM alone,62.37% and 59.41% and 53.57%
same,% inhibition,[5]; Niclosamide 0.09 uM alone,75.85% and 79.12% and 97.76% and 97.32%
same,IC50,"[5]; read-out: IC50 (μM) qRT-PCR, Vero E6, MOI 0.01, 48 hours, single drug",0.043 µM
same,%cell viability,[6]; niclosamide 0.00390625 uM,92.84%
same,%cell viability,[6]; niclosamide 0.0078125 uM,91.90%
same,%cell viability,[6]; niclosamide 0.015625 uM,92.98%
same,%cell viability,[6]; niclosamide 0.03125 uM,90.36%
same,%cell viability,[6]; niclosamide 0.0625 uM,90.95%
same,%cell viability,[6]; niclosamide 0.125 uM,88.11%
same,%cell viability,[6]; niclosamide 0.25 uM,54.41%
same,%cell viability,[6]; niclosamide 0.5 uM,25.91%
same,cell viability,[6]; Niclosamide 0.01125 uM alone,91.66 and 92.98
same,cell viability,[6]; Niclosamide 0.0225 uM alone,92.73 and 90.36
same,cell viability,[6]; Niclosamide 0.045 uM alone,94.97 and 90.95
same,cell viability,[6]; Niclosamide 0.09 uM alone,89.48 and 90.50
same,CC50 at 48 h,[7],290 nM
same,"viability at 48 h, 0.00390625 uM","[7]; %cell viability, Vero E6, niclosamide 0.00390625 uM, replicates",98.6%
same,"viability at 48 h, 0.0078125 uM","[7]; %cell viability, Vero E6, niclosamide 0.0078125 uM, replicates",97.7%
same,"viability at 48 h, 0.015625 uM","[7]; %cell viability, Vero E6, niclosamide 0.015625 uM, replicates",91.7%
same,"viability at 48 h, 0.03125 uM","[7]; %cell viability, Vero E6, niclosamide 0.03125 uM, replicates",92.7%
same,"viability at 48 h, 0.0625 uM","[7]; %cell viability, Vero E6, niclosamide 0.0625 uM, replicates",95%
same,"viability at 48 h, 0.125 uM","[7]; %cell viability, Vero E6, niclosamide 0.125 uM, replicates",91.3%
same,"viability at 48 h, 0.25 uM","[7]; %cell viability, Vero E6, niclosamide 0.25 uM, replicates",59.2%
same,"viability at 48 h, 0.5 uM","[7]; %cell viability, Vero E6, niclosamide 0.5 uM, replicates",20.1%
